Measurements as given in patent publication EP4722207A1, “OXOISOINDOLINYL-SUBSTITUTED TETRAHYDROPYRIMIDINEDIONE DERIVATIVE AND USE THEREOF” (Gluetacs Therapeutics (Shanghai) Co., Ltd., priority 2023, dated 2024).

Experiments:
[1] = target: T1, WEE1 (Homo sapiens, UniProt P30291+Q96SW2); assay: Western-blot assay, substrate protein degradation in hPBMCs: WEE1; format: cell-based; conditions: 24 hours of compound treatment, 50 nM and 500 nM
T1 construct: effects of the compounds of the present disclosure on the expression of target proteins in cells; endogenous in cells; host or cells: human PBMCs (hPBMCs)
T1 sequence (P30291 whole entry): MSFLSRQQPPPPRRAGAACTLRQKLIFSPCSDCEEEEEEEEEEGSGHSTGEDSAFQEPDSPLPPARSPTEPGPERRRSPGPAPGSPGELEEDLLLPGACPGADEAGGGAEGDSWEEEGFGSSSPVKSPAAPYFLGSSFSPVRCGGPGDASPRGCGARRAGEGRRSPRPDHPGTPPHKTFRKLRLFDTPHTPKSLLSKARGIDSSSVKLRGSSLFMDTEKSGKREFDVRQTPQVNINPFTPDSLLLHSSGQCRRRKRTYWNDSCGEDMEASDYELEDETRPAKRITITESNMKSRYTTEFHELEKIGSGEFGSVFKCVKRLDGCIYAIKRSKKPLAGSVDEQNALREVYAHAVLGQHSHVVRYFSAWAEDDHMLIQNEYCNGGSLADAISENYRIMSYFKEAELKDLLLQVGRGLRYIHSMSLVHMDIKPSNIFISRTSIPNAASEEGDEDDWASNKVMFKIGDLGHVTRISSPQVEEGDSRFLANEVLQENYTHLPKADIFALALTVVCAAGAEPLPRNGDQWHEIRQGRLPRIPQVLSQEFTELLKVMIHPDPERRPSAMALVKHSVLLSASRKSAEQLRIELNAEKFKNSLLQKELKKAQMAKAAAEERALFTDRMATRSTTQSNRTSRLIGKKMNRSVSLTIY
T1 sequence (Q96SW2 whole entry): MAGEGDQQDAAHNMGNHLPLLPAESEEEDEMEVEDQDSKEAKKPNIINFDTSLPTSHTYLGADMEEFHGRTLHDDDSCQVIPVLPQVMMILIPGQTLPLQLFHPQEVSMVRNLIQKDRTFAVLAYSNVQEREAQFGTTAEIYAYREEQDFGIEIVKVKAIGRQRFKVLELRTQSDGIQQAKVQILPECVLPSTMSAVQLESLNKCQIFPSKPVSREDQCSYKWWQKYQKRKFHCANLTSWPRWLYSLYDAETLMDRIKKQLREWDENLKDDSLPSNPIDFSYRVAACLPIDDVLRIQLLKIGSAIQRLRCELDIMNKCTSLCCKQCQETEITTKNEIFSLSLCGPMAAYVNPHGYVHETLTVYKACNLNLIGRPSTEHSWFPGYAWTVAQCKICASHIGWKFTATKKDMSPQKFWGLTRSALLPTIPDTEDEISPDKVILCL
T1 sequence (Q16531 whole entry partner): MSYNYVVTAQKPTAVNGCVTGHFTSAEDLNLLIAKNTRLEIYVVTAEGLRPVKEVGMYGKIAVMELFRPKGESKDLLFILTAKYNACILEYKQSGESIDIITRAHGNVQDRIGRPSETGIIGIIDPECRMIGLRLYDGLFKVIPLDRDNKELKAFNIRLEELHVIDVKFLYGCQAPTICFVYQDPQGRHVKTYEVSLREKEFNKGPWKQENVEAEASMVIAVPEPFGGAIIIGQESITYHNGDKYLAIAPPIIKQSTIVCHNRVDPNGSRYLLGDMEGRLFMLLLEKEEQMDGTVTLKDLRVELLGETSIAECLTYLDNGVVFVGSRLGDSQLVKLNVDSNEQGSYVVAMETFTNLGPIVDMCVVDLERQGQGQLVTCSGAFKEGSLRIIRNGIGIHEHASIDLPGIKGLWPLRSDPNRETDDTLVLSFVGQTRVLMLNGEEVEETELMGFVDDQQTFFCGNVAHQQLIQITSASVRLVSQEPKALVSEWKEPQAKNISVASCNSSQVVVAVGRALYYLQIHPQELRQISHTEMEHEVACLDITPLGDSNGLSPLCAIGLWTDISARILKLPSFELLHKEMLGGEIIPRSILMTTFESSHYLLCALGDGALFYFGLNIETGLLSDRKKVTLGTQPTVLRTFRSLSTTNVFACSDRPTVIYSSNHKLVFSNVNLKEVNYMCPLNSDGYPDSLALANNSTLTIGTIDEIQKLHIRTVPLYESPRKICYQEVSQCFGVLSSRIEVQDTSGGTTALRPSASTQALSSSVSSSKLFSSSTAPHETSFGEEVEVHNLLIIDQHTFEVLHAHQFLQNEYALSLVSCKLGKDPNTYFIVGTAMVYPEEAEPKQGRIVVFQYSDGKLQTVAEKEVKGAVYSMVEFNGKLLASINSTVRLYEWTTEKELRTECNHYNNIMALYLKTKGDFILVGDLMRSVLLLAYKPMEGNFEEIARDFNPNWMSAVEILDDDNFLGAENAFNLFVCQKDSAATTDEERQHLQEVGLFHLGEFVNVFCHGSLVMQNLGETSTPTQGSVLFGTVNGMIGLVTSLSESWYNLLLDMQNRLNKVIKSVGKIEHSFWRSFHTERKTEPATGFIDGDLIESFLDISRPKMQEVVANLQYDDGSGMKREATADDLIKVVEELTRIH

[2] = target: T2, IKZF3 (Homo sapiens, UniProt Q96SW2+Q9UKT9); assay: Western-blot assay, substrate protein degradation in hPBMCs: IKZF3; format: cell-based; conditions: 24 hours of compound treatment, 50 nM and 500 nM
T2 construct: effects of the compounds of the present disclosure on the expression of target proteins in cells; endogenous in cells; host or cells: human PBMCs (hPBMCs)
T2 sequence (Q9UKT9 whole entry): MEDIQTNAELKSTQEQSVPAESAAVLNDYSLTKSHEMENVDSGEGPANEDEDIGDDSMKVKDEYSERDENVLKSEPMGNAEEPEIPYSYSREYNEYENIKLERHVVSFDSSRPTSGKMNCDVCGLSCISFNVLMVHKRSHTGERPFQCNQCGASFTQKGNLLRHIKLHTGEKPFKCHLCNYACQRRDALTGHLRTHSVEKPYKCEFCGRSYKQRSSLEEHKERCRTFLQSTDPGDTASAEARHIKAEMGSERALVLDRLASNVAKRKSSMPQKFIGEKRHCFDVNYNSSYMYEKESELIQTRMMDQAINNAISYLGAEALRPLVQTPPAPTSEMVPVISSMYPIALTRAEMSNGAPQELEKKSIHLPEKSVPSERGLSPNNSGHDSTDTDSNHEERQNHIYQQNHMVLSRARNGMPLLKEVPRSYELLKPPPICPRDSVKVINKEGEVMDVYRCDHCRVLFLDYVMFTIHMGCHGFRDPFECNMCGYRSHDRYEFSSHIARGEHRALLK
T2 sequence (Q96SW2 whole entry): as the sequence (Q96SW2 whole entry) above
T2 sequence (Q16531 whole entry partner): as the sequence (Q16531 whole entry partner) above

[3] = target: T3, IKZF1 (Homo sapiens, UniProt Q13422+Q96SW2); assay: Western-blot assay, substrate protein degradation in hPBMCs: IKZF1; format: cell-based; conditions: 24 hours of compound treatment, 50 nM and 500 nM
T3 construct: effects of the compounds of the present disclosure on the expression of target proteins in cells; endogenous in cells; host or cells: human PBMCs (hPBMCs)
T3 sequence (Q13422 whole entry): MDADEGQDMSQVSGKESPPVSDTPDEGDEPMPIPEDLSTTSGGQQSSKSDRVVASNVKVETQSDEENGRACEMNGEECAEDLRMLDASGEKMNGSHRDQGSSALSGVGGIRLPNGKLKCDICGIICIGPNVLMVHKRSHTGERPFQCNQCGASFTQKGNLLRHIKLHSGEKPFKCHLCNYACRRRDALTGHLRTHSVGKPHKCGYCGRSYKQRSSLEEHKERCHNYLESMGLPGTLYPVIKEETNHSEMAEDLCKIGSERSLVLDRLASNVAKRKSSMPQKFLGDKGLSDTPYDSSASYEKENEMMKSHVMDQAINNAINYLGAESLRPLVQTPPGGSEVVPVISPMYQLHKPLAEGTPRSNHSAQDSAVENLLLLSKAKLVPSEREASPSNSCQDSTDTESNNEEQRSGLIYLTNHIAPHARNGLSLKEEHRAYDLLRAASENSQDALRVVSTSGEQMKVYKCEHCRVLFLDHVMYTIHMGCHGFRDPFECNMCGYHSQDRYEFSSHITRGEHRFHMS
T3 sequence (Q96SW2 whole entry): as the sequence (Q96SW2 whole entry) above
T3 sequence (Q16531 whole entry partner): as the sequence (Q16531 whole entry partner) above

[4] = target: T4, CK1α (Homo sapiens, UniProt P48729+Q96SW2); assay: Western-blot assay, substrate protein degradation in hPBMCs: CK1α; format: cell-based; conditions: 24 hours of compound treatment, 50 nM and 500 nM
T4 construct: effects of the compounds of the present disclosure on the expression of target proteins in cells; endogenous in cells; host or cells: human PBMCs (hPBMCs)
T4 sequence (P48729 whole entry): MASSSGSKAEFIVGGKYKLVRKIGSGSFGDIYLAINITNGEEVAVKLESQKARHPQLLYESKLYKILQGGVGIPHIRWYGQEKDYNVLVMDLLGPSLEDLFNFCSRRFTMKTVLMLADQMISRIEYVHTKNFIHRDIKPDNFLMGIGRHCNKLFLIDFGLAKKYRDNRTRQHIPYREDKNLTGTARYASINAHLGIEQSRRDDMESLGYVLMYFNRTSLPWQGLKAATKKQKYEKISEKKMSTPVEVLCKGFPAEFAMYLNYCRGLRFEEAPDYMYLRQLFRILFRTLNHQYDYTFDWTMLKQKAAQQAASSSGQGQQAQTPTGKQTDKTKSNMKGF
T4 sequence (Q96SW2 whole entry): as the sequence (Q96SW2 whole entry) above
T4 sequence (Q16531 whole entry partner): as the sequence (Q16531 whole entry partner) above

[5] = target: T5, IKZF2 (Homo sapiens, UniProt Q96SW2+Q9UKS7); assay: Western-blot assay, substrate protein degradation in hPBMCs: IKZF2; format: cell-based; conditions: 24 hours of compound treatment, 50 nM and 500 nM
T5 construct: effects of the compounds of the present disclosure on the expression of target proteins in cells; endogenous in cells; host or cells: human PBMCs (hPBMCs)

[6] = test system: H292; assay: Cell viability assay (CellTiter-Meiluncell Luminescent), tumor cell proliferation, H292; conditions: Homo sapiens, NCI-H292, 96 h; for inhibition at 0.01 µM: read-out: Inhibition Rate at 10 nM (%); for inhibition at 0.5 µM: read-out: Inhibition Rate at 500 nM (%)
Description: (§1) The tumor cells used herein were cultured in a cell culture medium listed in table 2 at 37°C in an incubator with 5% CO2. Prior to experimentation, all cell lines used were correctly identified by STR profiling, and tested negative for mycoplasma contamination using a mycoplasma detection kit through routine screenings.
(§2) On the following day, the test compounds of the present disclosure were subjected to serial dilution. […] Subsequently, 0.5 µL of the test compound dilution was transferred into the 96-well plate containing the cells, with each well containing 100 µL of cell culture medium. […] Into the 96-well plate, the diluted test compounds and corresponding detection reagents were added, resulting in final test compound concentrations of 500 nM and 10 nM, respectively. The experimental procedure is described below using the diluted 2 µM test compound as an example.
(§3) After the cells were treated with the compounds of the present disclosure for a specified period, the cell viability assay reagent was added to the culture medium according to the kit's instructions to determine cell viability. […] All controls were treated using the same procedure as the compounds of the present disclosure. The growth inhibition curves for the compounds of the present disclosure were plotted using Prism GraphPad software, and the IC50 values were calculated therefrom.

[7] = target: T6, GSPT1 (Homo sapiens, UniProt P15170+Q96SW2); assay: Western-blot assay, substrate protein degradation in hPBMCs: GSPT1; format: cell-based; conditions: 24 hours of compound treatment, 50 nM and 500 nM
T6 construct: effects of the compounds of the present disclosure on the expression of target proteins in cells; endogenous in cells; host or cells: human PBMCs (hPBMCs)
T6 sequence (P15170 whole entry): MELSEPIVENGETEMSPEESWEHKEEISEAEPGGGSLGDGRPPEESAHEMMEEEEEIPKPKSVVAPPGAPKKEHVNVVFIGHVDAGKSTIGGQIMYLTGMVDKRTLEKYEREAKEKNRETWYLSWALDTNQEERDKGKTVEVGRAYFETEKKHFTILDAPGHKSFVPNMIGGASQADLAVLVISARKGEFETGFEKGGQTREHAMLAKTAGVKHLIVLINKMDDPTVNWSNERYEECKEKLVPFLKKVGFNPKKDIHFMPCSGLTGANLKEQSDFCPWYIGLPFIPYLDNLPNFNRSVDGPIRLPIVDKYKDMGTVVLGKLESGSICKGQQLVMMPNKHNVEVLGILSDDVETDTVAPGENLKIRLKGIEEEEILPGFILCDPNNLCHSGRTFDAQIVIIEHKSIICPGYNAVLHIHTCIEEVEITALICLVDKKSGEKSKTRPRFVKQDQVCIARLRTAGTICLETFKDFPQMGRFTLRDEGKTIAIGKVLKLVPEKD
T6 sequence (Q96SW2 whole entry): as the sequence (Q96SW2 whole entry) above
T6 sequence (Q16531 whole entry partner): as the sequence (Q16531 whole entry partner) above

[8] = test system: MDA-MB-231; assay: Cell viability assay (CellTiter-Meiluncell Luminescent), tumor cell proliferation, MDA-MB-231; conditions: Homo sapiens, MDA-MB-231, 96 h; for inhibition at 0.01 µM: read-out: Inhibition Rate at 10 nM (%); for inhibition at 0.5 µM: read-out: Inhibition Rate at 500 nM (%)
[9] = test system: H2228; assay: Cell viability assay (CellTiter-Meiluncell Luminescent), tumor cell proliferation, H2228; conditions: Homo sapiens, NCI-H2228, 96 h; for inhibition at 0.01 µM: read-out: Inhibition Rate at 10 nM (%); for inhibition at 0.5 µM: read-out: Inhibition Rate at 500 nM (%)
[10] = test system: MV-4-11; assay: Cell viability assay (CellTiter-Meiluncell Luminescent), tumor cell proliferation, MV-4-11; conditions: Homo sapiens, MV4-11, 96 h; for inhibition at 0.01 µM: read-out: Inhibition Rate at 10 nM (%); for inhibition at 0.5 µM: read-out: Inhibition Rate at 500 nM (%)
[11] = test system: MM.1S; assay: Cell viability assay (CellTiter-Meiluncell Luminescent), tumor cell proliferation, MM.1S; conditions: Homo sapiens, MM1.S, 96 h; for inhibition at 0.01 µM: read-out: Inhibition Rate at 10 nM (%); for inhibition at 0.5 µM: read-out: Inhibition Rate at 500 nM (%)
Description: as §1, §2, §3

Compound	substrate protein remaining % WEE1 [1]	substrate protein remaining % IKZF3 [2]	substrate protein remaining % IKZF1 [3]	substrate protein remaining % CK1α [4]	substrate protein remaining % IKZF2 [5]	inhibition at 0.01 µM [6] [%]	inhibition at 0.5 µM [6] [%]	substrate protein remaining % GSPT1 [7]	inhibition at 0.01 µM [8] [%]	inhibition at 0.5 µM [8] [%]	inhibition at 0.01 µM [9] [%]	inhibition at 0.5 µM [9] [%]	inhibition at 0.01 µM [10] [%]	inhibition at 0.5 µM [10] [%]	inhibition at 0.01 µM [11] [%]	inhibition at 0.5 µM [11] [%]
O=C1CCN(N2Cc3cc(CNC45CC6CC(CC(O)(C6)C4)C5)ccc3C2=O)C(=O)N1 [GT-07784, 1-(5-((((1r,3s,5R,7S)-3-hydroxyadamantan-1-yl)amino)methyl)-1-oxoisoindolin-2-yl)dihydropyrimidine-2,4(1H,3H)-dione]	B (80%< substrate protein remaining %≤ 100%)	B (80%< substrate protein remaining %≤ 100%)	B (80%< substrate protein remaining %≤ 100%)	B (80%< substrate protein remaining %≤ 100%)	A (0% ≤ substrate protein remaining % ≤ 80%)	20 to 40	20 to 40	B (80%< substrate protein remaining %≤ 100%)	18 to 25	25 to 40	25 to 30	30 to 40				
O=C1CCN(N2C(=O)c3ccc(CNC45CC6CC(CC(O)(C6)C4)C5)cc3C2=O)C(=O)N1 [GT-07786, 2-(2,4-dioxotetrahydropyrimidin-1(2H)-yl)-5-((((1r,3s,5R,7S)-3-hydroxyadamantan-1-yl)amino)methyl)isoindoline-1,3-dione]	B (80%< substrate protein remaining %≤ 100%)	B (80%< substrate protein remaining %≤ 100%)	B (80%< substrate protein remaining %≤ 100%)	B (80%< substrate protein remaining %≤ 100%)	B (80%< substrate protein remaining %≤ 100%)	10 to 15	20 to 40	A (0% ≤ substrate protein remaining % ≤ 80%)	15 to 18	25 to 40	10 to 15	25 to 30				
O=C1CCN(N2Cc3cc(CN4CCN(c5ncnc6sccc56)CC4)ccc3C2=O)C(=O)N1 [GT-08057, 1-(1-oxo-5-((4-(thieno[2,3-d]pyrimidin-4-yl)piperazin-1-yl)methyl)isoindolin-2-yl)dihydropyrimidine-2,4(1H,3H)-dione]	B (80%< substrate protein remaining %≤ 100%)	B (80%< substrate protein remaining %≤ 100%)	A (0% ≤ substrate protein remaining % ≤ 80%)	B (80%< substrate protein remaining %≤ 100%)	B (80%< substrate protein remaining %≤ 100%)	15 to 20	15 to 20	A (0% ≤ substrate protein remaining % ≤ 80%)	25 to 40	25 to 40	30 to 40	20 to 25				
Cc1sc2ncnc(N3CCN(Cc4ccc5c(c4)CN(N4CCC(=O)NC4=O)C5=O)CC3)c2c1C [GT-08061, 1-(5-((4-(5,6-dimethylthieno[2,3-d]pyrimidin-4-yl)piperazin-1-yl)methyl)-1-oxoisoindolin-2-yl)dihydropyrimidine-2,4(1H,3H)-dione]	B (80%< substrate protein remaining %≤ 100%)	A (0% ≤ substrate protein remaining % ≤ 80%)	B (80%< substrate protein remaining %≤ 100%)	B (80%< substrate protein remaining %≤ 100%)	A (0% ≤ substrate protein remaining % ≤ 80%)			B (80%< substrate protein remaining %≤ 100%)	10 to 15	18 to 25	10 to 15	25 to 30				
O=C1CCN(N2Cc3cc(CN4CCC(c5ncnc6scc(-c7ccccc7)c56)CC4)ccc3C2=O)C(=O)N1 [GT-08086, 1-(1-oxo-5-((4-(5-phenylthieno[2,3-d]pyrimidin-4-yl)piperidin-1-yl)methyl)isoindolin-2-yl)dihydropyrimidine-2,4(1H,3H)-dione]						20 to 40	20 to 40		25 to 40	25 to 40	20 to 25	20 to 25				
CC(C)c1cc2c(N3CCN(Cc4ccc5c(c4)C(=O)N(N4CCC(=O)NC4=O)C5=O)CC3)ncnc2s1 [GT-08093, 2-(2,4-dioxotetrahydropyrimidin-1(2H)-yl)-5-((4-(6-isopropylthieno[2,3-d]pyrimidin-4-yl)piperazin-1-yl)methyl)isoindoline-1,3-dione]	A (0% ≤ substrate protein remaining % ≤ 80%)	B (80%< substrate protein remaining %≤ 100%)	B (80%< substrate protein remaining %≤ 100%)	A (0% ≤ substrate protein remaining % ≤ 80%)	B (80%< substrate protein remaining %≤ 100%)	15 to 20	15 to 20	A (0% ≤ substrate protein remaining % ≤ 80%)			20 to 25	20 to 25	40 to 60	60 to 80		
O=C1CCN(N2C(=O)c3ccc(CN4CCN(c5ncnc6scc(-c7ccccc7)c56)CC4)cc3C2=O)C(=O)N1 [GT-08098, 2-(2,4-dioxotetrahydropyrimidin-1(2H)-yl)-5-((4-(5-phenylthieno[2,3-d]pyrimidin-4-yl)piperazin-1-yl)methyl)isoindoline-1,3-dione]	B (80%< substrate protein remaining %≤ 100%)	B (80%< substrate protein remaining %≤ 100%)	B (80%< substrate protein remaining %≤ 100%)	B (80%< substrate protein remaining %≤ 100%)	B (80%< substrate protein remaining %≤ 100%)			A (0% ≤ substrate protein remaining % ≤ 80%)			10 to 15	25 to 30	18 to 25	18 to 25		
Cc1nc(N2CCN(Cc3ccc4c(c3)C(=O)N(N3CCC(=O)NC3=O)C4=O)CC2)c2c3c(sc2n1)CCC3 [GT-08104, 2-(2,4-dioxotetrahydropyrimidin-1(2H)-yl)-5-((4-(2-methyl-6,7-dihydro-5H-cyclopenta[4,5]thieno[2,3-d]pyrimidin-4-yl)piperazin-1-yl)methyl)isoindoline-1,3-dione]	A (0% ≤ substrate protein remaining % ≤ 80%)	A (0% ≤ substrate protein remaining % ≤ 80%)	B (80%< substrate protein remaining %≤ 100%)	B (80%< substrate protein remaining %≤ 100%)	A (0% ≤ substrate protein remaining % ≤ 80%)			A (0% ≤ substrate protein remaining % ≤ 80%)					40 to 60	40 to 60	20 to 30	30 to 42
Cc1cc2c(C3=CCN(Cc4ccc5c(c4)CN(N4CCC(=O)NC4=O)C5=O)CC3)ncnc2s1 [GT-08157, 1-(5-((4-(6-methylthieno[2,3-d]pyrimidin-4-yl)-3,6-dihydropyridin-1(2H)-yl)methyl)-1-oxoisoindolin-2-yl)dihydropyrimidine-2,4(1H,3H)-dione]						20 to 40	15 to 20		15 to 18	25 to 40			18 to 25	80 to 100	-5 to 0	80 to 100
O=C1CCN(N2Cc3cc(CN4CC=C(c5ncnc6sc7c(c56)CCCC7)CC4)ccc3C2=O)C(=O)N1 [GT-08178, 1-(1-oxo-5-((4-(5,6,7,8-tetrahydrobenzo[4,5]thieno[2,3-d]pyrimidin-4-yl)-3,6-dihydropyridin-1(2H)-yl)methyl)isoindolin-2-yl)dihydropyrimidine-2,4(1H,3H)-dione]						40 to 60	20 to 40		18 to 25	18 to 25			60 to 80	80 to 100	60 to 80	60 to 80
